Measurements from patent US9273095B2, “Antibiotic peptide and preparation method therefor and application therefor” (priority 2011, dated 2016).
Marks after values point to notes of the source that are not given here. Non-standard residues stand in square brackets, D forms with d. Residues, ends and D or L forms follow the SMILES beside them.

How the values were obtained:
[1] = system: red cell suspension from healthy volunteers; assay: Hemolytic activity test; assay type: cell-based, human; details: for Hemolytic activity, absorbancy (OD value) at 570 nm: 4 hours at 37° C., OD higher than 0.1 is hemolytic, n = 3; for hemolytic toxicity (in words): summary of Table 9
Experimental: (1) Samples are serial diluted with sterile PBS to 1000, 500, 250, 125, 64, 32, 16, 8, 4 μg/ml in turn and spread in 96-well plates, 100 μl per orifice.
(2) We use distilled water as positive control, sterile PBS as negative control and blank orifice with 200 μl PBS solution added. Each concentration above is made in triplicate.
(3) We take 3 ml whole blood from healthy volunteers and washed it with sterile PBS three times to prepare fresh 2% concentration red cell suspension. Then we added 100 μl red cell suspension into each orifice and made them cultured for 4 hours at 37° C. in the incubator. After centrifuged by plate-swashing centrifuge, the supernatant liquid is collected and measured absorbancy (OD value) at a wavelength of 570 nm. Then we compared the hemolytic efficiency of these concentrations.
(4) According to the documents standard, OD value which is higher than 0.1 is hemolytic concentration.

[2] = system: Staphylococcus aureus ATCC25923; assay: Anti-infection test of externally-applied agent on skin, viable count; assay type: in vivo, ICR mice; details: for viable count, Liver (1:5) / viable count, Skin (1:10) / viable count, Spleen (1:5) / viable count, Whole blood: 0.1 ml morning and evening for 7 days, n = 10
Text: (§1) 1. Experimental Strains: Staphylococcus epidermidis ATCC12228 and Staphylococcus aureus ATCC25923
(§2) There are 50 male ICR mice with the weight of 20±2 g. According to their weight, they are randomly divided into 5 groups of 10 mice: negative infected control group, Bactroban positive control group, 1% concentration cream group, 1‰ concentration cream group and blank ground substance group. Each group is raised in the same plastic case. Their blank parts, heads, necks, backs and tails are marked with picric acid marking method. All the mice are raised with ordinary animal feeds in the ordinary animal houses and they could drink water freely. Alternating of light and dark is conducted every 12 hours.
(§3) There are preparation of 1% concentration, 1‰ concentration, and blank ground substance preparation (supplied by Jiangsu ProteLight Pharmaceutical & Biotechnology Co., LTD.) and Bactroban (supplied by SK&F).
(§4) (1) The bacteria strains which preserved in liquid nitrogen are inoculated to MHB plate and cultured overnight at 37° C.
(§5) (2) The solid strains are inoculated to MHB liquid medium and overnight cultured shakily at the speed of 220 rpm at 37° C.
(§6) (3) The bacterial suspension cultured overnight is diluted to 5×10^6CFU/ml and applied in reserve.
(§7) (4) Skin modeling: Mice's back are sheared and depilated by depilatory paste. After the hair off, they are abraded with 0.3 mm-long sandpaper to bleeding and injected 0.1 ml bacterial suspension with the concentration of 5×10^6CFU/ml subcutaneously.
(§8) (5) Administration: All the groups except the negative infected control group are respectively applied different cream with the dosage of 0.1 ml once respectively in the morning and evening for 7 days.
(§9) (6) After 7 days, the visceral organs, blood and infected skin of mice are collected by aseptic method to count viable bacteria.

[3] = system: Staphylococcus epidermidis ATCC12228; assay: as above; assay type: in vivo, ICR mice; details: for viable count, Liver (1:5) / viable count, Skin (1:10) / viable count, Spleen (1:5) / viable count, Whole blood: 0.1 ml morning and evening for 7 days, n = 10
Text: as §1, §2, §3, §4, §5, §6, §7, §8, §9

Pseudomonas aeruginosa = assay: Therapeutic test of injection on mice with systemic infection, survival time; assay type: in vivo, ICR mice; details: 30 mg/kg twice a day for three days, n = 10
Text: (§10) There are 30 male and 30 female ICR mice with the weight ranging from 18 g to 22 g. According to their weight, they are randomly divided into 6 groups of 10 mice: blank control group, negative control group, Levofloxacin positive control group, PL-13 (SEQ ID NO: 1) high dose group, PL-13 (SEQ ID NO: 1) middle dose group and PL-13 (SEQ ID NO: 1) low dose group. Each group is raised in the same plastic case. With trinitrophenal marking method, all the mice are raised with ordinary animal feeds in the ordinary animal houses and they can drink water freely. Alternating of light and dark is conducted every 12 hours.
(§11) 2. Infected Strains: Pseudomonas aeruginosa and Staphylococcus aureus
(§12) PL-18 (SEQ ID NO: 1) freeze-dried powder injections (supplied by Jiangsu ProteLight Pharmaceutical & Biotechnology Co., LTD.), Levofloxacin Hydrochloride and Sodium Chloride Injection (supplied by Yangtze River Pharmaceutical Group) and 0.9% Sodium Chloride Injection (supplied by Chifeng Rongjitang Pharmaceutical CO., Ltd.)
(§13) (1) The preparation of bacterial suspension is the same as above.
(§14) (2) The Pseudomonas aeruginosa suspension cultured overnight is diluted to 1×10^9CFU/ml. The Staphylococcus aureus suspension cultured overnight is diluted to 1×10^8CFU/ml. They are all applied in reserve.
(§15) (3) Except the blank control group, every other mouse is injected with 0.2 ml Pseudomonas aeruginosa suspension with the concentration of 1×10^9CFU/ml or 0.2 ml Staphylococcus aureus suspension with the concentration of 1×10^8CFU/ml intraperitoneally to make model.
(§16) (4) Administration: Inject the drugs according to weight right after the model is ready. All the groups excepting the blank and the negative infected group are injected with different dosage of different injections through caudal vena twice a day successively for three days, and they are observed for fourteen days.
(§17) (5) Observe death of the animals and record their survival time.

Staphylococcus aureus = assay: as above; assay type: in vivo, ICR mice; details: 30 mg/kg twice a day for three days, n = 10
Text: as §10, §11, §12, §13, §14, §15, §16, §17

## CC[C@@H](C)[C@@H](NC(=O)[C@@H](CCCCN)NC(=O)[C@@H](CO)NC(=O)[C@@H](Cc1ccccc1)NC(=O)[C@@H](CC(C)C)NC(=O)[C@@H](CCCCN)NC(=O)[C@@H](CCC(=O)O)NC(=O)[C@@H](CC(C)C)NC(=O)[C@@H](CCCNC(=N)N)NC(=O)[C@@H](CCCCN)NC(=O)[C@@H](Cc1ccccc1)NC(C)=O)C(=O)N[C@H](Cc1c[nH]c2ccccc12)C(=O)N[C@H](CC(N)=O)C(=O)N[C@H](Cc1c[nH]c2ccccc12)C(=O)N[C@H](CCCCN)C(N)=O [PL-17] (Ac-[dF][dK][dR][dL][dE][dK][dL][dF][dS][dK][dI][dW][dN][dW][dK]-NH2)
[1]; peptide 7.8125 μg/ml
  Hemolytic activity, absorbancy (OD value) at 570 nm: 0.033
[1]; peptide 15.625 μg/ml
  Hemolytic activity, absorbancy (OD value) at 570 nm: 0.056
[1]; peptide 31.25 μg/ml
  Hemolytic activity, absorbancy (OD value) at 570 nm: 0.063
[1]; peptide 62.5 μg/ml
  Hemolytic activity, absorbancy (OD value) at 570 nm: 0.065
[1]; peptide 125 μg/ml
  Hemolytic activity, absorbancy (OD value) at 570 nm: 0.078
[1]; peptide 250 μg/ml
  Hemolytic activity, absorbancy (OD value) at 570 nm: 0.082
[1]; peptide 500 μg/ml
  Hemolytic activity, absorbancy (OD value) at 570 nm: 0.152
[1]; peptide 1000 μg/ml
  Hemolytic activity, absorbancy (OD value) at 570 nm: 0.339
[1]
  hemolytic toxicity (in words): little hemolytic toxicity

## Ac-FKKLKKLFSKLWNWK-NH2 [PL-13]
[1]; peptide 7.8125 μg/ml
  Hemolytic activity, absorbancy (OD value) at 570 nm: 0.043
[1]; peptide 15.625 μg/ml
  Hemolytic activity, absorbancy (OD value) at 570 nm: 0.059
[1]; peptide 31.25 μg/ml
  Hemolytic activity, absorbancy (OD value) at 570 nm: 0.065
[1]; peptide 62.5 μg/ml
  Hemolytic activity, absorbancy (OD value) at 570 nm: 0.090
[1]; peptide 125 μg/ml
  Hemolytic activity, absorbancy (OD value) at 570 nm: 0.117
[1]; peptide 250 μg/ml
  Hemolytic activity, absorbancy (OD value) at 570 nm: 0.184
[1]; peptide 500 μg/ml
  Hemolytic activity, absorbancy (OD value) at 570 nm: 0.220
[1]; peptide 1000 μg/ml
  Hemolytic activity, absorbancy (OD value) at 570 nm: 0.310
[1]
  hemolytic toxicity (in words): little hemolytic toxicity
[2]; 1% externally-applied agent
  viable count, Liver (1:5): 10 CFU/plate
  viable count, Skin (1:10): 852 CFU/plate
  viable count, Spleen (1:5): 6 CFU/plate
  viable count, Whole blood: 8 CFU/plate
[2]; 1‰ externally-applied agent
  viable count, Liver (1:5): 12 CFU/plate
  viable count, Skin (1:10): 1005 CFU/plate
  viable count, Spleen (1:5): 14 CFU/plate
  viable count, Whole blood: 11 CFU/plate
[2]; externally-applied agent, twice daily for 7 days, Staphylococcus aureus
  inhibition of skin infection (in words): effective
[3]; 1% externally-applied agent
  viable count, Liver (1:5): 12 CFU/plate
  viable count, Skin (1:10): 369 CFU/plate
  viable count, Spleen (1:5): 5 CFU/plate
  viable count, Whole blood: 10 CFU/plate
[3]; 1‰ externally-applied agent
  viable count, Liver (1:5): 10 CFU/plate
  viable count, Skin (1:10): 425 CFU/plate
  viable count, Spleen (1:5): 17 CFU/plate
  viable count, Whole blood: 18 CFU/plate
[3]; externally-applied agent, twice daily for 7 days, Staphylococcus epidermidis
  inhibition of skin infection (in words): effective

## C[C@H]1COc2c(N3CCN(C)CC3)c(F)cc3c(=O)c(C(=O)O)cn1c23 [Levofloxacin, levofloxacin, reference compound]
Pseudomonas aeruginosa; observed fourteen days
  Mean survival Time: 6.4** day
Pseudomonas aeruginosa; day 1
  Mortality of mice in different days after infection: 4
Pseudomonas aeruginosa; day 2
  Mortality of mice in different days after infection: 2
Pseudomonas aeruginosa; day 3
  Mortality of mice in different days after infection: 0
Pseudomonas aeruginosa; day 4
  Mortality of mice in different days after infection: 0
Pseudomonas aeruginosa; day 5
  Mortality of mice in different days after infection: 0
Staphylococcus aureus; observed fourteen days
  Mean survival Time: 5.4** day
Staphylococcus aureus; day 1
  Mortality of mice in different days after infection: 5
Staphylococcus aureus; day 2
  Mortality of mice in different days after infection: 2
Staphylococcus aureus; day 3
  Mortality of mice in different days after infection: 0
Staphylococcus aureus; day 4
  Mortality of mice in different days after infection: 0
Staphylococcus aureus; day 5
  Mortality of mice in different days after infection: 0
